Test [1] deals with NAMPT (human, recombinant, C-terminally His-tagged) (Homo sapiens, UniProt P43490). As to the kind of experiment: Time-Resolved Fluorescence Resonance Energy Transfer (TR-FRET) Binding Assay of NAMPT. The following applies: without substrates; 6.8 nM NAMPT, 200 nM probe, 3 hours equilibration. An outline of the steps: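 A TR-FRET probe-displacement assay used 6.8 nM His-tagged recombinant human NAMPT, 200 nM Oregon Green 488-labelled nicotinamide-competitive probe and 1 nM Tb-anti-His antibody. Buffer was HEPES pH 7.5 with NaCl, MgCl2, DTT and glycerol, plus 2% DMSO, equilibrated 3 h at room temperature. Em520/Em495 ratios, normalized to controls, gave IC50 by four-parameter logistic fit.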

In a further test the target is NAMPT (Homo sapiens, UniProt P43490). As to the kind of experiment: TR-FRET Binding Assay of NAMPT with PRPP. The following applies: with 200 μM PRPP and 2.5 mM ATP; 2 nM NAMPT, 2 nM probe, 16 hours equilibration. An outline of the steps:
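Human NAMPT (2 nM) with 2 nM probe and 1 nM Tb-anti-His antibody, plus 200 μM PRPP and 2.5 mM ATP, 2% DMSO. TR-FRET read after 16 h equilibration, permitting possible enzymatic modification of test compounds; data processing as for the substrate-free format.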

The test system of a further test is PC3 cells. As to the kind of experiment: NAMPT Cell Proliferation Assay. The test is classed as cell-based. The following applies: Homo sapiens, PC-3, 120 h, 5 days incubation, cell viability by Cell Titer Glo. An outline of the steps:
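Proliferation of PC3 cells treated 5 days with a 10-fold compound series (top 10 μM) was quantified by Cell Titer Glo luminescence; IC50s were fitted from percent inhibition.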

NAMPT, sequence (P43490 whole entry): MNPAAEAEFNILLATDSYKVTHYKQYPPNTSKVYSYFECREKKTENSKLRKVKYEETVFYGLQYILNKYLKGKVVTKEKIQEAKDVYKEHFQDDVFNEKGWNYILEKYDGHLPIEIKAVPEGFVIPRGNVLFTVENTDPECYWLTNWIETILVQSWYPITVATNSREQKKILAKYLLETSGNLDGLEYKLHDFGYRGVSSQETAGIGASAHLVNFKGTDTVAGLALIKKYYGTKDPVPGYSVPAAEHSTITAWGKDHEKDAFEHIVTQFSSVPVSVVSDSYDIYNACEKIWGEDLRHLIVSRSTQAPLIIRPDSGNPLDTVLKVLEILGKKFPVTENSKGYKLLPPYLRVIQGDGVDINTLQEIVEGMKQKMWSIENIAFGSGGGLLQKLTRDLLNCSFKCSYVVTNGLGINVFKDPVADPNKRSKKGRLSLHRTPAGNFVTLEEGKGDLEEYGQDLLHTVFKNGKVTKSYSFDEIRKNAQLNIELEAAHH
NAMPT (human, recombinant, C-terminally His-tagged), sequence (P43490 whole entry): as above

As for `O=C(NCc1ccn2ccnc2c1)c1ccc(C2CCN(C(=O)c3cccc(OC(F)(F)F)c3)CC2)cc1` [Example 703, N-(imidazo[1,2-a]pyridin-7-ylmethyl)-4-{1-[3-(trifluoromethoxy)benzoyl]piperidin-4-yl}benzamide], the IC50 was 559 nM in test [1], 0.824 nM at NAMPT and 90.3 nM with PC3 cells.
In the case of `O=C(NCc1ccn2ccnc2c1)c1ccc(C2CCN(C(=O)c3ccccc3Cl)C2)s1` (stereo not drawn) [Example 757, 5-[1-(2-chlorobenzoyl)pyrrolidin-3-yl]-N-(imidazo[1,2-a]pyridin-7-ylmethyl)thiophene-2-carboxamide], the IC50 was found to be 15.6 nM in test [1], 0.705 nM at NAMPT and 0.435 nM in the test with PC3 cells.
For `O=C(NCc1ccn2ccnc2c1)Nc1ccc(O[C@@H]2CCN(C(=O)c3cc(F)cc(F)c3)C2)cc1` [Example 694, 1-(4-{[(3R)-1-(3,5-difluorobenzoyl)pyrrolidin-3-yl]oxy}phenyl)-3-(imidazo[1,2-a]pyridin-7-ylmethyl)urea], the IC50 in test [1] is 163 nM; at NAMPT, 1.12 nM; in the test on PC3 cells it was 24.7 nM.
Consider `CC1(C(=O)N2CC(c3ccc(C(=O)NCc4ccn5ccnc5c4)cc3)C2)CCCCC1` [Example 665, N-(imidazo[1,2-a]pyridin-7-ylmethyl)-4-{1-[(1-methylcyclohexyl)carbonyl]azetidin-3-yl}benzamide], for which the IC50 worked out at 123 nM in test [1], 0.357 nM at NAMPT and 7.28 nM with PC3 cells.
For the molecule `O=C(NCc1ccn2ccnc2c1)c1ccc(O[C@H]2CCN(C(=O)CC3CC3)C2)cc1` [Example 347, 4-{[(3S)-1-(cyclopropylacetyl)pyrrolidin-3-yl]oxy}-N-(imidazo[1,2-a]pyridin-7-ylmethyl)benzamide], the IC50 in test [1] amounted to 4730 nM; on NAMPT, 0.667 nM; with PC3 cells, 8080 nM.
On to `COc1ccccc1C(=O)N1CCC(c2ccc(C(=O)NCc3ccn4ccnc4c3)cc2)C1` (stereo not drawn) [Example 587, N-(imidazo[1,2-a]pyridin-7-ylmethyl)-4-[1-(2-methoxybenzoyl)pyrrolidin-3-yl]benzamide], for which the IC50 in test [1] was determined as 236 nM; on NAMPT, 0.917 nM; in the test with PC3 cells, 7.54 nM.
For `O=C(NCc1ccn2ccnc2c1)Nc1ccc(OC2CCN(C(=O)c3ccc(F)cc3F)CC2)cc1` [Example 727, 1-(4-{[1-(2,4-difluorobenzoyl)piperidin-4-yl]oxy}phenyl)-3-(imidazo[1,2-a]pyridin-7-ylmethyl)urea], the IC50 was determined as 166 nM in test [1], 0.783 nM at NAMPT and 58.2 nM with PC3 cells.
With `O=C(NCc1ccn2ccnc2c1)c1ccc(C2CCN(C(=O)c3ccc(C(F)(F)F)cc3)CC2)cc1` [Example 705, N-(imidazo[1,2-a]pyridin-7-ylmethyl)-4-{1-[4-(trifluoromethyl)benzoyl]piperidin-4-yl}benzamide], the IC50 in test [1] came out at 876 nM; on NAMPT, 1.63 nM; in the test on PC3 cells, 95.8 nM.
For `CCCn1cc(-c2ccc(NC(=O)NCc3ccc4nccn4c3)cc2)cn1` [Example 360, 1-(imidazo[1,2-a]pyridin-6-ylmethyl)-3-[4-(1-propyl-1H-pyrazol-4-yl)phenyl]urea], the IC50 turned out to be 291 nM in test [1], 0.717 nM at NAMPT and 663 nM with PC3 cells.
For the molecule `O=C(CCC1CCCC1)Nc1ccc(NC(=O)NCc2ccc3nccn3c2)cc1` [Example 275, 3-cyclopentyl-N-(4-{[(imidazo[1,2-a]pyridin-6-ylmethyl)carbamoyl]amino}phenyl)propanamide], the IC50 was determined as 12.3 nM in test [1], 0.43 nM on NAMPT and 23.9 nM in the test on PC3 cells.
For `O=C(NCc1ccn2ccnc2c1)Nc1ccc(-c2cnn(CC3CCOCC3)c2)cc1` [Example 675, 1-(imidazo[1,2-a]pyridin-7-ylmethyl)-3-{4-[1-(tetrahydro-2H-pyran-4-ylmethyl)-1H-pyrazol-4-yl]phenyl}urea], the IC50 in test [1] turned out to be 376 nM; on NAMPT it was 2.07 nM; in the test with PC3 cells, 69.8 nM.
As to `O=C(NCc1ccc2nccn2c1)c1ccc(-c2cnn(CC3CCCO3)c2)s1` (stereo not drawn) [Example 219, N-(imidazo[1,2-a]pyridin-6-ylmethyl)-5-[1-(tetrahydrofuran-2-ylmethyl)-1H-pyrazol-4-yl]thiophene-2-carboxamide], the IC50 in test [1] amounted to 79.4 nM; at NAMPT, 0.903 nM; in the test with PC3 cells, 5.59 nM.
With `O=C(NCc1ccn2ccnc2c1)c1cnc(C2CCN(S(=O)(=O)c3ccccc3)C2)s1` (stereo not drawn) [Example 752, N-(imidazo[1,2-a]pyridin-7-ylmethyl)-2-[1-(phenylsulfonyl)pyrrolidin-3-yl]-1,3-thiazole-5-carboxamide], the values for the IC50 (in test [1]; on NAMPT; with PC3 cells) were 5190 nM, 0.77 nM and 6660 nM, respectively.
On to `O=C(NCc1ccn2ccnc2c1)c1ccc(C2CCN(C(=O)c3ccc(Cl)cc3)C2)cc1` (stereo not drawn) [Example 596, 4-[1-(4-chlorobenzoyl)pyrrolidin-3-yl]-N-(imidazo[1,2-a]pyridin-7-ylmethyl)benzamide], for which the IC50 was 691 nM in test [1], 0.909 nM on NAMPT and 257 nM in the test on PC3 cells.
On to `O=C(NCc1ccn2ccnc2c1)c1ccc(C2CN(C(=O)c3ccccc3F)C2)cc1` [Example 638, 4-[1-(2-fluorobenzoyl)azetidin-3-yl]-N-(imidazo[1,2-a]pyridin-7-ylmethyl)benzamide], for which the figures for the IC50 (in test [1]; on NAMPT; with PC3 cells) were 16.6 nM, 0.545 nM and 2.61 nM, respectively.
Regarding `O=C(NCc1ccn2ccnc2c1)c1ccc(C2CCN(C(=O)CC3CCOCC3)CC2)cc1` [Example 236, N-(imidazo[1,2-a]pyridin-7-ylmethyl)-4-[1-(tetrahydro-2H-pyran-4-ylacetyl)piperidin-4-yl]benzamide], the figures for the IC50 (in test [1]; at NAMPT; in the test with PC3 cells) were 604 nM, 0.243 nM and 13.8 nM, respectively.
`O=C(NCc1ccn2ccnc2c1)c1cnc(N(C[C@H]2CCCO2)C(=O)Cc2cscn2)s1` [Example 196, N-(imidazo[1,2-a]pyridin-7-ylmethyl)-2-{[(2R)-tetrahydrofuran-2-ylmethyl](1,3-thiazol-4-ylacetyl)amino}-1,3-thiazole-5-carboxamide]: the results for the IC50 (in test [1]; at NAMPT; in the test with PC3 cells) were 358 nM, 0.169 nM and 6.75 nM, respectively.
Regarding `O=C(NCc1ccn2ccnc2c1)c1ccc(C2=CCN(C(=O)c3ccccc3)CC2)o1` [Example 746, 5-(1-benzoyl-1,2,3,6-tetrahydropyridin-4-yl)-N-(imidazo[1,2-a]pyridin-7-ylmethyl)furan-2-carboxamide], the figures for the IC50 (in test [1]; on NAMPT; with PC3 cells) were 795 nM, 0.839 nM and 116 nM, respectively.
On to `Cc1ncsc1CCC(=O)N(CC1CCCO1)c1ncc(C(=O)NCc2ccc3nccn3c2)s1` (stereo not drawn) [Example 131, N-(imidazo[1,2-a]pyridin-6-ylmethyl)-2-{[3-(4-methyl-1,3-thiazol-5-yl)propanoyl](tetrahydrofuran-2-ylmethyl)amino}-1,3-thiazole-5-carboxamide], for which the IC50 in test [1] was determined as 15.2 nM; at NAMPT, 1.67 nM; with PC3 cells, 2.17 nM.
For the molecule `CC(C)OCCNC(=O)N(CC1CCOC1)c1ncc(C(=O)NCc2ccc3nccn3c2)s1` (stereo not drawn) [Example 157, N-(imidazo[1,2-a]pyridin-6-ylmethyl)-2-[{[2-(propan-2-yloxy)ethyl]carbamoyl}(tetrahydrofuran-3-ylmethyl)amino]-1,3-thiazole-5-carboxamide], the IC50 came out at 4140 nM in test [1], 1.1 nM at NAMPT and 29.2 nM in the test on PC3 cells.
For `CC(C)(C)OC(=O)N1CCC(O)(c2ccc(C(=O)NCc3ccn4ccnc4c3)s2)CC1` [Example 403, tert-butyl 4-hydroxy-4-{5-[(imidazo[1,2-a]pyridin-7-ylmethyl)carbamoyl]thiophen-2-yl}piperidine-1-carboxylate], the figures for the IC50 (in test [1]; at NAMPT; in the test with PC3 cells) were 1550 nM, 0.847 nM and 54.5 nM, respectively.
Consider `CC1(Cn2cc(-c3ccc(C(=O)NCc4ccn5ccnc5c4)o3)cn2)CCOCC1` [Example 734, N-(imidazo[1,2-a]pyridin-7-ylmethyl)-5-{1-[(4-methyltetrahydro-2H-pyran-4-yl)methyl]-1H-pyrazol-4-yl}furan-2-carboxamide], for which the IC50 in test [1] is 14.2 nM; at NAMPT it was 0.605 nM; in the test with PC3 cells, 0.553 nM.
Turning to `O=C(NCc1ccn2ccnc2c1)c1ccc(C(=O)N2CCCCC2)cc1` [Example 566, N-(imidazo[1,2-a]pyridin-7-ylmethyl)-4-(piperidin-1-ylcarbonyl)benzamide], the IC50 in test [1] was > 10000 nM; at NAMPT, 216 nM; in the test with PC3 cells it was > 10000 nM.
Take `CC(C)CCNC(=O)c1ccc(C(=O)NCc2ccn3ccnc3c2)cc1` [Example 393, N-(imidazo[1,2-a]pyridin-7-ylmethyl)-N′-(3-methylbutyl)benzene-1,4-dicarboxamide]: the IC50 in test [1] was > 10000 nM; on NAMPT, 4.37 nM; in the test with PC3 cells it was > 10000 nM.
Regarding `O=C(NCCCCC1CCN(C(=O)CC2CCOC2)CC1)Nc1ccc2nccn2c1` (stereo not drawn) [Example 73, 1-imidazo[1,2-a]pyridin-6-yl-3-{4-[1-(tetrahydrofuran-3-ylacetyl)piperidin-4-yl]butyl}urea], the IC50 in test [1] stood at 605 nM; on NAMPT, 0.426 nM; in the test on PC3 cells it was 59.5 nM.

The record behind these values is US9187472B2 (AbbVie Inc., priority 2012, dated 2015).
